Patent US20230145305A1, “COMPOUNDS USEFUL AS KINASE INHIBITORS” (Fochon Biosciences, Ltd., priority 2020, published 2023)
pIC50: −log10 of the molar value.

What follows are molecules tested on OCI-LY10 cells (assay: Cell proliferation assay (MTS) in OCI-LY10 cells). Conditions: Homo sapiens, OCI-Ly10, 72 h, read-out: OCI-LY10 IC50 (nM).
Type: cell-based
Text: MTS testing kit was purchased from Promega (Madison, Wis., USA). The RPMI-1640, Fetal bovine serum and Penicillin-Streptomycin were purchased from BI (Biological Industries, Beit Haemek, Israel). Dimethyl sulfoxide (DMSO) was purchased from Sigma (St. Louis., Mo., USA). […] To investigate whether a compound is able to inhibit the activity of BTK in cells, a mechanism-based assay using OCI-LY10 cells was developed. In this assay, inhibition of BTK was detected by the inhibition of OCI-LY10 cells proliferation. Cells were plated into 96-well plates at a density of 10000 cells/well. Plates were incubated at 37° C., with 5% CO2 for 4 h. […] Plates were incubated at 37° C., with 5% CO2 for 72 h. 20 μl MTS was added into each well and the plates were incubated at 37° C., with 5% CO2 for exactly 2 h. The absorbance was measured by a microplate reader at 490 nm. IC50 was calculated using GraphPad Prism 5.0 software. Select compounds prepared as described above were assayed according to the biological procedures described herein.

Work on `COc1ccc(F)cc1C(=O)NCc1ccc(-c2nn(C3CCCC3)c3c(=O)[nH]nc(N)c23)cc1F` [Example 62, N-(4-(4-amino-1-cyclopentyl-7-oxo-6,7-dihydro-1H-pyrazolo[3,4-d]pyridazin-3-yl)-2-fluorobenzyl)-5-fluoro-2-methoxybenzamide] yielded an IC50 of 1 nM.

Same assay, conditions: Homo sapiens; inhibition of OCI-LY10 cells proliferation, 72 h incubation, MTS, absorbance at 490 nm; read-out: OCI-LY10 IC50

Point of comparison: `COc1ccc(F)cc1C(=O)NCc1ccc(-n2cc(C3CCCCC3)c3c(=O)[nH]nc(N)c32)cc1` [Example 27, N-(4-(7-amino-3-cyclohexyl-4-oxo-4,5-dihydro-1H-pyrrolo[2,3-d]pyridazin-1-yl)benzyl)-5-fluoro-2-methoxybenzamide], pIC50 9.00. Against it:
- COc1ccc(F)cc1C(=O)NCc1ccc(-n2nc(CC3CC3)c3c(=O)[nH]nc(N)c32)cc1 [Example 93, N-(4-(7-amino-3-(cyclopropylmethyl)-4-oxo-4,5-dihydro-1H-pyrazolo[3,4-d]pyridazin-1-yl)benzyl)-5-fluoro-2-methoxybenzamide] — 1.38 log units lower, 7.62
- COc1ccc(F)cc1C(=O)NCc1ccc(-c2nn(C3CCCC3)c3c(=O)[nH]nc(N)c23)c(F)c1 [Example 63, N-(4-(4-amino-1-cyclopentyl-7-oxo-6,7-dihydro-1H-pyrazolo[3,4-d]pyridazin-3-yl)-3-fluorobenzyl)-5-fluoro-2-methoxybenzamide] — the same, 9.00
- COc1ccc(F)cc1C(=O)NCc1ccc(-c2nn([C@H]3CCC[C@@H]3F)c3c(=O)[nH]nc(N)c23)cc1 [Example 80, N-(4-(4-amino-1-((1S,2S)-2-fluorocyclopentyl)-7-oxo-6,7-dihydro-1H-pyrazolo[3,4-d]pyridazin-3-yl)benzyl)-5-fluoro-2-methoxybenzamide] — the same, 9.00
- COc1ccc(F)cc1C(=O)NCc1ccc(-c2nn(C3CCC3)c3c(=O)[nH]nc(N)c23)cc1 [Example 65, N-(4-(4-amino-1-cyclobutyl-7-oxo-6,7-dihydro-1H-pyrazolo[3,4-d]pyridazin-3-yl)benzyl)-5-fluoro-2-methoxybenzamide] — the same, 9.00
- CCC(C)n1nc(-c2ccc(CNC(=O)c3cc(F)ccc3OC)cc2)c2c(N)n[nH]c(=O)c21 (stereo not drawn) [Example 67, N-(4-(4-amino-1-(sec-butyl)-7-oxo-6,7-dihydro-1H-pyrazolo[3,4-d]pyridazin-3-yl)benzyl)-5-fluoro-2-methoxybenzamide] — the same, 9.00
- COc1ccc(F)cc1C(=O)NCc1ccc(-n2nc(C3CCCO3)c3c(=O)[nH]nc(N)c32)cc1 (stereo not drawn) [Example 86, N-(4-(7-amino-4-oxo-3-(tetrahydrofuran-2-yl)-4,5-dihydro-1H-pyrazolo[3,4-d]pyridazin-1-yl)benzyl)-5-fluoro-2-methoxybenzamide] — 1.95 log units lower, 7.05
- COc1ncc(F)cc1C(=O)NCc1ccc(-c2cn(C3CCCC3)c3c(=O)[nH]nc(N)c23)cc1 [Example 71, N-(4-(4-amino-1-cyclopentyl-7-oxo-6,7-dihydro-1H-pyrrolo[2,3-d]pyridazin-3-yl)benzyl)-5-fluoro-2-methoxynicotinamide] — 1.36 log units lower, 7.64
- COc1ccc(F)cc1C(=O)NCc1ccc(-c2nn([C@@H]3CCCC3(F)F)c3c(=O)[nH]nc(N)c23)cc1 [Example 72, (R)-N-(4-(4-amino-1-(2,2-difluorocyclopentyl)-7-oxo-6,7-dihydro-1H-pyrazolo[3,4-d]pyridazin-3-yl)benzyl)-5-fluoro-2-methoxybenzamide] — the same, 9.00
- COC(=O)N1CC[C@@H](n2cc(-c3ccc(CNC(=O)c4cc(F)ccc4OC)cc3)c3c(N)n[nH]c(=O)c32)C1 [Example 49, methyl (R)-3-(4-amino-3-(4-((5-fluoro-2-methoxybenzamido)methyl)phenyl)-7-oxo-6,7-dihydro-1H-pyrrolo[2,3-d]pyridazin-1-yl)pyrrolidine-1-carboxylate] — 0.95 log units lower, 8.05
- CCS(=O)(=O)N1CC[C@@H](n2cc(-c3ccc(CNC(=O)c4cc(F)ccc4OC)cc3)c3c(N)n[nH]c(=O)c32)C1 [Example 110, (R)-N-(4-(4-amino-1-(1-(ethylsulfonyl)pyrrolidin-3-yl)-7-oxo-6,7-dihydro-1H-pyrrolo[2,3-d]pyridazin-3-yl)benzyl)-5-fluoro-2-methoxybenzamide] — 1.36 log units lower, 7.64
- COc1ccc(F)cc1C(=O)NCc1ccc(-c2cn([C@@H]3CCN(C(=O)OC4CC4)C3)c3c(=O)[nH]nc(N)c23)cc1 [Example 106, cyclopropyl (R)-3-(4-amino-3-(4-((5-fluoro-2-methoxybenzamido)methyl)phenyl)-7-oxo-6,7-dihydro-1H-pyrrolo[2,3-d]pyridazin-1-yl)pyrrolidine-1-carboxylate] — 1.04 log units lower, 7.96
- COc1ccc(F)cc1C(=O)NCc1ccc(-c2cn(C3CCCCC3)c3c(=O)[nH]nc(N)c23)cc1 [Example 35, N-(4-(4-amino-1-cyclohexyl-7-oxo-6,7-dihydro-1H-pyrrolo[2,3-d]pyridazin-3-yl)benzyl)-5-fluoro-2-methoxybenzamide] — the same, 9.00
- CCC(C)c1nn(-c2ccc(CNC(=O)c3cc(F)ccc3OC)cc2)c2c(N)n[nH]c(=O)c12 (stereo not drawn) [Example 92a, N-(4-(7-amino-3-(sec-butyl)-4-oxo-4,5-dihydro-1H-pyrazolo[3,4-d]pyridazin-1-yl)benzyl)-5-fluoro-2-methoxybenzamide] — 1.00 log units lower, 8.00
- COc1ccc(F)cc1C(=O)NCc1ccc(-c2nn([C@@H](C(F)F)C3CC3)c3c(=O)[nH]nc(N)c23)cc1 [Example 89, (R)-N-(4-(4-amino-1-(1-cyclopropyl-2,2-difluoroethyl)-7-oxo-6,7-dihydro-1H-pyrazolo[3,4-d]pyridazin-3-yl)benzyl)-5-fluoro-2-methoxybenzamide] — the same, 9.00
- COc1ccc(F)cc1C(=O)NCc1ccc(-c2nn(C(C)C)c3c(=O)[nH]nc(N)c23)cc1 [Example 68, N-(4-(4-amino-1-isopropyl-7-oxo-6,7-dihydro-1H-pyrazolo[3,4-d]pyridazin-3-yl)benzyl)-5-fluoro-2-methoxybenzamide] — 0.30 log units lower, 8.70
- COc1ccc(F)cc1C(=O)NCc1ccc(-c2cn([C@@H]3CCN(C(=O)C4CC4)C3)c3c(=O)[nH]nc(N)c23)cc1 [Example 48, (R)-N-(4-(4-amino-1-(1-(cyclopropanecarbonyl)pyrrolidin-3-yl)-7-oxo-6,7-dihydro-1H-pyrrolo[2,3-d]pyridazin-3-yl)benzyl)-5-fluoro-2-methoxybenzamide] — 1.68 log units lower, 7.32
- COc1ccc(F)cc1C(=O)NCc1ccc(-c2nn([C@H]3CCCC3(F)F)c3c(=O)[nH]nc(N)c23)cc1 [Example 64, (S)-N-(4-(4-amino-1-(2,2-difluorocyclopentyl)-7-oxo-6,7-dihydro-1H-pyrazolo[3,4-d]pyridazin-3-yl)benzyl)-5-fluoro-2-methoxybenzamide] — the same, 9.00
- COc1ccc(F)cc1C(=O)NCc1ccc(-c2nn(C3(C(F)(F)F)CC3)c3c(=O)[nH]nc(N)c23)cc1 [Example 87, N-(4-(4-amino-7-oxo-1-(1-(trifluoromethyl)cyclopropyl)-6,7-dihydro-1H-pyrazolo [3,4-d]pyridazin-3-yl)benzyl)-5-fluoro-2-methoxybenzamide] — 0.60 log units lower, 8.40
- COc1ccc(F)cc1C(=O)NCc1ccc(-c2cn([C@@H]3CCN(S(C)(=O)=O)C3)c3c(=O)[nH]nc(N)c23)cc1 [Example 50, (R)-N-(4-(4-amino-1-(1-(methylsulfonyl)pyrrolidin-3-yl)-7-oxo-6,7-dihydro-1H-pyrrolo[2,3-d]pyridazin-3-yl)benzyl)-5-fluoro-2-methoxybenzamide] — 1.28 log units lower, 7.72
- COc1ccc(F)cc1C(=O)NCc1ccc(-n2nc(C3CC3(F)F)c3c(=O)[nH]nc(N)c32)cc1 (stereo not drawn) [Example 99, N-(4-(7-amino-3-(2,2-difluorocyclopropyl)-4-oxo-4,5-dihydro-1H-pyrazolo[3,4-d]pyridazin-1-yl)benzyl)-5-fluoro-2-methoxybenzamide] — 1.81 log units lower, 7.19
- COc1ccc(F)cc1C(=O)NCc1ccc(-c2cn([C@@H]3CCN(C(=O)OC(C)C)C3)c3c(=O)[nH]nc(N)c23)cc1 [Example 105, isopropyl (R)-3-(4-amino-3-(4-((5-fluoro-2-methoxybenzamido)methyl)phenyl)-7-oxo-6,7-dihydro-1H-pyrrolo[2,3-d]pyridazin-1-yl)pyrrolidine-1-carboxylate] — 0.60 log units lower, 8.40
- COc1ccc(F)cc1C(=O)NCc1ccc(-n2nc(C(C)C(F)(F)F)c3c(=O)[nH]nc(N)c32)cc1 (stereo not drawn) [Example 41, N-(4-(7-amino-4-oxo-3-(1,1,1-trifluoropropan-2-yl)-4,5-dihydro-1H-pyrazolo[3,4-d]pyridazin-1-yl)benzyl)-5-fluoro-2-methoxybenzamide] — 1.26 log units lower, 7.74
- COc1ccc(F)cc1C(=O)NCc1ccc(-c2cn(C3CC(F)(F)C3)c3c(=O)[nH]nc(N)c23)cn1 [Example 55] — 1.45 log units lower, 7.55
- COc1ccc(F)cc1C(=O)NCc1ccc(-n2nc(C3CC(F)(F)C3)c3c(=O)[nH]nc(N)c32)cc1 [Example 97, N-(4-(7-amino-3-(3,3-difluorocyclobutyl)-4-oxo-4,5-dihydro-1H-pyrazolo[3,4-d]pyridazin-1-yl)benzyl)-5-fluoro-2-methoxybenzamide] — 1.36 log units lower, 7.64
- COc1ccc(F)cc1C(=O)NCc1ccc(-c2cn(C(C)C(F)(F)F)c3c(=O)[nH]nc(N)c23)cc1F (stereo not drawn) [Example 53, N-(4-(4-amino-7-oxo-1-(1,1,1-trifluoropropan-2-yl)-6,7-dihydro-1H-pyrrolo[2,3-d]pyridazin-3-yl)-2-fluorobenzyl)-5-fluoro-2-methoxybenzamide] — 0.48 log units lower, 8.52
